Results from publication PMC6968643, “Synthesis and biological evaluation of novel (E)-N'-benzylidene hydrazides as novel c-Met inhibitors through fragment based virtual screening” (Journal of Enzyme Inhibition and Medicinal Chemistry, 2020).

How the values were obtained:
recombinant c-Met kinase = recombinant c-Met kinase (Homo sapiens, UniProt P08581); assay: Cell-free detection of c-Met kinase activity (ADP-Glo assay)
Description: The capacity of the novel compounds for inhibiting c-Met activity was evaluated using a cell-free assay.

VEGFR-2 = VEGFR-2 (Homo sapiens, UniProt P35968); assay: Kinase activity against VEGFR-2; type: biochemical; conditions: for IC50: Table 3, inhibitory activity (IC50) against VEGFR-2, – = no inhibitory effect
Source text: It was consistent with the QSAR predicted results. […] Both of the proteins belong to the family of tyrosine kinase, which catalyse the phosphorylation of tyrosine. […] While subtle differences may make small molecules show different activities against the two kinases. So we superimposed the two kinases in three dimensions to explore the reason.

VEGFR-2, sequence (P35968 20-1356): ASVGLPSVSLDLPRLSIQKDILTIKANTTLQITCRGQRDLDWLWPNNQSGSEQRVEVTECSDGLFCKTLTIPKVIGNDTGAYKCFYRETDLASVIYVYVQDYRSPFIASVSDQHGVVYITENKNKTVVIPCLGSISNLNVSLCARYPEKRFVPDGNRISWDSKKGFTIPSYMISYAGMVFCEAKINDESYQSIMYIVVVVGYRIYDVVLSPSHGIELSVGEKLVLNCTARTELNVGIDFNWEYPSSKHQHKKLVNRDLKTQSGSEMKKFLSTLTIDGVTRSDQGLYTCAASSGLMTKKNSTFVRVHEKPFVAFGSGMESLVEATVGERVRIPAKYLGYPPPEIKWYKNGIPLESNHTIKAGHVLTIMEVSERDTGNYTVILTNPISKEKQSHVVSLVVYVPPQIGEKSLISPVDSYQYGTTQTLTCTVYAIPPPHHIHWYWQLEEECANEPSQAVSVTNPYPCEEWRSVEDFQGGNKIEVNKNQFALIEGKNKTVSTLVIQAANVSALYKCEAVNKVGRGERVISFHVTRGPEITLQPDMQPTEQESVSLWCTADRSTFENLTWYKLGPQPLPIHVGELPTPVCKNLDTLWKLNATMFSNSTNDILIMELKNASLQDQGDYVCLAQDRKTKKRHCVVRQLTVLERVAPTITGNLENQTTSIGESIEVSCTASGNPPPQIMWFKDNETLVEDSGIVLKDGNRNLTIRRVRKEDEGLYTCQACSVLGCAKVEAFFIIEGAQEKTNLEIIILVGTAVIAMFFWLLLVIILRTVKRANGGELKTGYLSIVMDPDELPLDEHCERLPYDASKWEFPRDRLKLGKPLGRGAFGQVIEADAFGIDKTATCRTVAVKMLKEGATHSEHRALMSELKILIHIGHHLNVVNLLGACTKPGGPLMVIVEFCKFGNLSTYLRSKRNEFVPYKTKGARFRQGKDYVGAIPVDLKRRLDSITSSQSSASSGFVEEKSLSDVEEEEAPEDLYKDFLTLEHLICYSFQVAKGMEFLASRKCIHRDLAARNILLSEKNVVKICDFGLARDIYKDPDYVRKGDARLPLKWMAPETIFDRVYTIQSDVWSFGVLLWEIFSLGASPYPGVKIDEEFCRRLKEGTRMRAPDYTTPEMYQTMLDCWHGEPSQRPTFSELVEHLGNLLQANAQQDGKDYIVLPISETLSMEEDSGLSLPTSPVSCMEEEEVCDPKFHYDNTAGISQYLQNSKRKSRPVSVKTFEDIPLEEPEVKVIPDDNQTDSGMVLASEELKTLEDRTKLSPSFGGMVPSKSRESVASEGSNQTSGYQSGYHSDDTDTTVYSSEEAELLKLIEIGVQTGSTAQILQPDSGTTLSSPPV
recombinant c-Met kinase, sequence (P08581 25-1390): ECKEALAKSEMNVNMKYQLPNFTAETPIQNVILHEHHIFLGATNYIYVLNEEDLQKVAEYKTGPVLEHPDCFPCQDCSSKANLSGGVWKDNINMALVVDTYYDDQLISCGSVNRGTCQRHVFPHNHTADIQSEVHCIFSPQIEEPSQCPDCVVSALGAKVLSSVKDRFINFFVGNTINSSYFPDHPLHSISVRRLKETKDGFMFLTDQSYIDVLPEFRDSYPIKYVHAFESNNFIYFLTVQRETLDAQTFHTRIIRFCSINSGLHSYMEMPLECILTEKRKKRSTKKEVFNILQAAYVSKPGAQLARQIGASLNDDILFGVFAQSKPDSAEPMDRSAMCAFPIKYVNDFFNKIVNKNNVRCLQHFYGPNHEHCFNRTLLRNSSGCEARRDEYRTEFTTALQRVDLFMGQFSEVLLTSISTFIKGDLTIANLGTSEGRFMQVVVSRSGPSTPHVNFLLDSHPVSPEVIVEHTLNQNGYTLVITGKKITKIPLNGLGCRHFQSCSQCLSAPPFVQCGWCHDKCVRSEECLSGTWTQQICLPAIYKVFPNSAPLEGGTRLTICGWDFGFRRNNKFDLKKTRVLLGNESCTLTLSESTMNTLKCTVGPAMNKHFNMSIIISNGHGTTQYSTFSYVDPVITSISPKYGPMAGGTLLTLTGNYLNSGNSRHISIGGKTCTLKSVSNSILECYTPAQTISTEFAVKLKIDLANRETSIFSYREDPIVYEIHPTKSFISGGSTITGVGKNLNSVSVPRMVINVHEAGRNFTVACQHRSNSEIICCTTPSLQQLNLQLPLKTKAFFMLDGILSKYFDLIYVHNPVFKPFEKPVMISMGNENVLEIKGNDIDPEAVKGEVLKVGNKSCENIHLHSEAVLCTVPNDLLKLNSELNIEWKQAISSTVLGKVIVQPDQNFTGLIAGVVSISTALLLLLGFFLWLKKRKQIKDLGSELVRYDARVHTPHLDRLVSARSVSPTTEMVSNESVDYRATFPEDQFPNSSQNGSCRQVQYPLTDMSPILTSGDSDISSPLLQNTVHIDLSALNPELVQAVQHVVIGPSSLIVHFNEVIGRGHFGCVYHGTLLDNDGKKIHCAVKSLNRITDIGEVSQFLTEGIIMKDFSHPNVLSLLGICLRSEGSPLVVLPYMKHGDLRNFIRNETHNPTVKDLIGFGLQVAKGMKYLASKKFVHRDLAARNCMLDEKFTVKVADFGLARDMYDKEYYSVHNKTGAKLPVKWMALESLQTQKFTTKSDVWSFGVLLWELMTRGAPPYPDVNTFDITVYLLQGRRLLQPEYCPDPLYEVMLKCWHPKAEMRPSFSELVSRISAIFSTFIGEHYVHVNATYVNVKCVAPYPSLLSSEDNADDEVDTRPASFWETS

| SMILES | IC50 (recombinant c-Met kinase) | melting point | activity against VEGFR-2 (in words) (VEGFR-2) | IC50 (VEGFR-2) |
| --- | --- | --- | --- | --- |
| CC(=O)Nc1cccc(-c2cn(CC(=O)N/N=C/c3ccc(Cl)cc3)nn2)c1 [Compound 10a, (E)-2-(4-(3-acetamidophenyl)-1H-1,2,3-triazol-1-yl)-N'-(4-chlorobenzylidene)] | 0.0017 µM | 234.6 to 234.9 °C |  |  |
| CC(=O)Nc1cccc(-c2cn(CC(=O)N/N=C/c3cccc(Cl)c3)nn2)c1 [Compound 10b, (E)-2-(4-(3-acetamidophenyl)-1H-1,2,3-triazol-1-yl)-N'-(3-chlorobenzylidene)] | 0.00037 µM | 255.8 to 256.3 °C | no activity | > 12 µM |
| CC(=O)Nc1cccc(-c2cn(CC(=O)N/N=C/c3ccc(O)cc3)nn2)c1 [Compound 10c, (E)-2-(4-(3-acetamidophenyl)-1H-1,2,3-triazol-1-yl)-N'-(4-hydroxybenzylidene) acetohydrazide] | 11.2 µM | 260 to 260.8 °C |  |  |
| CC(=O)Nc1cccc(-c2cn(CC(=O)N/N=C/c3ccccc3O)nn2)c1 [Compound 10d, (E)-2-(4-(3-acetamidophenyl)-1H-1,2,3-triazol-1-yl)-N'-(2-hydroxybenzylidene) acetohydrazide] | 0.266 µM | 253.8 to 254.2 °C |  |  |
| CC(=O)Nc1cccc(-c2cn(CC(=O)N/N=C/c3ccccc3[N+](=O)[O-])nn2)c1 [Compound 10e, (E)-2-(4-(3-acetamidophenyl)-1H-1,2,3-triazol-1-yl)-N'-(2-nitrobenzylidene)acetohydrazide] | 5.86 µM | 233.2 to 233.8 °C |  |  |
| CC(=O)Nc1cccc(-c2cn(CC(=O)N/N=C/c3cc(Cl)ccc3O)nn2)c1 [Compound 10f, (E)-2-(4-(3-acetamidophenyl)-1H-1,2,3-triazol-1-yl)-N'-(5-chloro-2-hydroxybenzylidene) acetohydrazide] | 0.00119 µM | 234.6 to 234.9 °C |  | 0.139 µM |
| CC(=O)Nc1cccc(-c2cn(CC(=O)N/N=C/c3cc(Br)cc(Br)c3O)nn2)c1 [Compound 10g, (E)-2-(4-(3-acetamidophenyl)-1H-1,2,3-triazol-1-yl)-N'-(3,5-dibromo-2-hydroxybenzylidene)acetohydrazide] | 8.93 µM | 237 to 237.5 °C |  |  |
| CC(=O)Nc1cccc(-c2cn(CC(=O)N/N=C/c3cc(Br)ccc3O)nn2)c1 [Compound 10h, (E)-2-(4-(3-acetamidophenyl)-1H-1,2,3-triazol-1-yl)-N'-(5-bromo-2-hydroxybenzylidene) acetohydrazide] | > 12 µM | 228.9 to 229.3 °C |  |  |
| COc1ccc(/C=N/NC(=O)Cn2cc(-c3cccc(NC(C)=O)c3)nn2)c(OC)c1 [Compound 10i, (E)-2-(4-(3-acetamidophenyl)-1H-1,2,3-triazol-1-yl)-N'-(2,4-dimethoxybenzylidene) acetohydrazide] | 0.00173 µM | 210.9 to 211.3 °C |  |  |
| COc1ccc(/C=N/NC(=O)Cn2cc(-c3cccc(NC(C)=O)c3)nn2)cc1OC [Compound 10j, (E)-2-(4-(3-acetamidophenyl)-1H-1,2,3-triazol-1-yl)-N'-(3,4-dimethoxybenzylidene) acetohydrazide] | 0.00542 µM | 230 to 230.6 °C |  |  |
| COc1cc(/C=N/NC(=O)Cn2cc(-c3cccc(NC(C)=O)c3)nn2)cc(OC)c1OC [Compound 10k, (E)-2-(4-(3-acetamidophenyl)-1H-1,2,3-triazol-1-yl)-N'-(3,4,5-trimethoxybenzylidene) acetohydrazide] | 0.0915 µM | 210.2 to 212.9 °C |  |  |
| O=C(Cn1cc(-c2ccccc2)nn1)N/N=C/c1ccc(Cl)cc1 [Compound 11a, (E)-N'-(4-chlorobenzylidene)-2-(4-phenyl-1H-1,2,3-triazol-1-yl)acetohydrazide] | > 12 µM | 259 to 259.6 °C |  |  |
| O=C(Cn1cc(-c2ccccc2)nn1)N/N=C/c1cccc(Cl)c1 [Compound 11b, (E)-N'-(3-chlorobenzylidene)-2-(4-phenyl-1H-1,2,3-triazol-1-yl)acetohydrazide] | 0.00341 µM | 259 to 259.8 °C |  | 0.0253 µM |
| O=C(Cn1cc(-c2ccccc2)nn1)N/N=C/c1ccc(O)cc1 [Compound 11c, (E)-N'-(4-hydroxybenzylidene)-2-(4-phenyl-1H-1,2,3-triazol-1-yl)acetohydrazide] | 5.68 µM | 234 to 234.5 °C |  |  |
| O=C(Cn1cc(-c2ccccc2)nn1)N/N=C/c1ccccc1O [Compound 11d, (E)-N'-(2-hydroxybenzylidene)-2-(4-phenyl-1H-1,2,3-triazol-1-yl)acetohydrazide] | > 12 µM | 239 to 239.6 °C |  |  |
| O=C(Cn1cc(-c2ccccc2)nn1)N/N=C/c1ccccc1[N+](=O)[O-] [Compound 11e, (E)-N'-(2-nitrobenzylidene)-2-(4-phenyl-1H-1,2,3-triazol-1-yl)acetohydrazide] | 4.28 µM | 225.2 to 225.6 °C |  |  |
| O=C(Cn1cc(-c2ccccc2)nn1)N/N=C/c1cc(Cl)ccc1O [Compound 11f, (E)-N'-(5-chloro-2-hydroxybenzylidene)-2-(4-phenyl-1H-1,2,3-triazol-1-yl)acetohydrazide] | > 12 µM | 240 to 240.6 °C |  | 9.86 µM |
| O=C(Cn1cc(-c2ccccc2)nn1)N/N=C/c1cc(Br)cc(Br)c1O [Compound 11g, (E)-N'-(3,5-dibromo-2-hydroxybenzylidene)-2-(4-phenyl-1H-1,2,3-triazol-1-yl) acetohydrazide] | > 12 µM | 231 to 231.5 °C |  |  |
| O=C(Cn1cc(-c2ccccc2)nn1)N/N=C/c1cc(Br)ccc1O [Compound 11h, (E)-N'-(5-bromo-2-hydroxybenzylidene)-2-(4-phenyl-1H-1,2,3-triazol-1-yl)acetohydrazide] | 0.0119 µM | 233 to 233.5 °C |  |  |
| COc1ccc(/C=N/NC(=O)Cn2cc(-c3ccccc3)nn2)c(OC)c1 [Compound 11i, (E)-N'-(2,4-dimethoxybenzylidene)-2-(4-phenyl-1H-1,2,3-triazol-1-yl)acetohydrazide] | > 12 µM | 230 to 230.4 °C |  | 0.849 µM |
| COc1ccc(/C=N/NC(=O)Cn2cc(-c3ccccc3)nn2)cc1OC [Compound 11j, (E)-N'-(3,4-dimethoxybenzylidene)-2-(4-phenyl-1H-1,2,3-triazol-1-yl)acetohydrazide] | 3.08 µM | 232.1 to 232.5 °C |  |  |
| COc1cc(/C=N/NC(=O)Cn2cc(-c3ccccc3)nn2)cc(OC)c1OC [Compound 11k, (E)-2-(4-phenyl-1H-1,2,3-triazol-1-yl)-N'-(3,4,5-trimethoxybenzylidene)acetohydrazide] | > 12 µM | 233.5 to 233.8 °C |  |  |
